Assay results taken from ChEMBL document CHEMBL4000174, “Synthesis and antitumor activity of novel substituted uracil-1'(N)-acetic acid ester derivatives of 20(S)-camptothecins” (Eur J Med Chem, 2017).
The source made the active and inactive calls. The calls are words filed in the database; no cut-off is given here.

Experiments:
A549 [1] = assay: Antiproliferative activity against human A549 cells after 96 hrs by MTT assay; type: functional, cell-based; conditions: A549, 96 h
Bel-7402 [2] = assay: Antiproliferative activity against human Bel7402 cells after 96 hrs by MTT assay; type: functional, cell-based; conditions: Bel-7402, 96 h
BGC-823 [3] = assay: Antiproliferative activity against human BGC823 cells after 96 hrs by MTT assay; type: functional, cell-based; conditions: BGC-823, 96 h
HCT-8 = assay: Antiproliferative activity against human HCT8 cells after 96 hrs by MTT assay; type: functional, cell-based; conditions: HCT-8, 96 h
A2780 = assay: Antiproliferative activity against human A2780 cells after 96 hrs by MTT assay; type: functional, cell-based; conditions: A2780, 96 h
A549 [4] = assay: Cell cycle arrest in human A549 cells assessed as accumulation at G0/G1 phase at 8 nM after 24 hrs by propidium iodide staining based flow cytometry (reference value: 58.84%); type: functional
A549 [5] = assay: Cell cycle arrest in human A549 cells assessed as accumulation at S phase at 8 nM after 24 hrs by propidium iodide staining based flow cytometry (reference value: 32.80%); type: functional
A549 [6] = assay: Cell cycle arrest in human A549 cells assessed as accumulation at G2/M phase at 8 nM after 24 hrs by propidium iodide staining based flow cytometry (reference value: 8.36%); type: functional
A549 [7] = assay: Cell cycle arrest in human A549 cells assessed as accumulation at G0/G1 phase at 25 nM after 24 hrs by propidium iodide staining based flow cytometry (reference value: 58.84%); type: functional
A549 [8] = assay: Cell cycle arrest in human A549 cells assessed as accumulation at S phase at 25 nM after 24 hrs by propidium iodide staining based flow cytometry (reference value: 32.80%); type: functional
A549 [9] = assay: Cell cycle arrest in human A549 cells assessed as accumulation at G2/M phase at 25 nM after 24 hrs by propidium iodide staining based flow cytometry (reference value: 8.36%); type: functional
A549 [10] = assay: Cell cycle arrest in human A549 cells assessed as accumulation at G0/G1 phase at 75 nM after 24 hrs by propidium iodide staining based flow cytometry (reference value: 58.84%); type: functional
A549 [11] = assay: Cell cycle arrest in human A549 cells assessed as accumulation at S phase at 75 nM after 24 hrs by propidium iodide staining based flow cytometry (reference value: 32.80%); type: functional
A549 [12] = assay: Cell cycle arrest in human A549 cells assessed as accumulation at G2/M phase at 75 nM after 24 hrs by propidium iodide staining based flow cytometry (reference value: 8.36%); type: functional
Mus musculus [13] = assay: Toxicity in BALB/c nude mouse xenografted with human Bel7402 cells assessed as body weight at 5 mg/kg, ip administered once in a week for two weeks starting from 6 days post tumor transplantation measured every 3 days for 21 days (reference value: 14.5 g); type: organism-based; conditions: in vivo, 504 h
Bel-7402 [14] = assay: Antitumor activity against human Bel7402 cells xenografted in BALB/c nude mouse assessed as tumor growth inhibition at 5 mg/kg, ip administered once in a week for two weeks starting from 6 days post tumor transplantation measured 27 to 30 days post tumor transplantation relative to control; type: functional; conditions: Bel-7402, ip, read-out: TGI
Escherichia coli = assay: Inhibition of Escherichia coli topoisomerase 1-mediated relaxation of supercoiled Pcmv-6 plasmid DNA at 1 to 50 uM after 30 mins by ethidium bromide staining based agarose gel electrophoretic analysis
Bel-7402 [15] = assay: Antitumor activity against human Bel7402 cells xenografted in BALB/c nude mouse assessed as tumor volume at 5 mg/kg, ip administered once in a week for two weeks starting from 6 days post tumor transplantation measured 27 to 30 days post tumor transplantation relative to control; type: functional
Mus musculus [16] = assay: Antitumor activity in BALB/c nude mouse xenografted with human Bel7402 cells assessed as tumor volume at 5 mg/kg, ip administered once in a week for two weeks starting from 6 days post tumor transplantation measured every 3 days for 21 days (reference value: […]); conditions: in vivo, 504 h
Mus musculus [17] = assay: Toxicity in Kunming mouse implanted with mouse H22 cells assessed as body weight at 40 mg/kg, ip administered on day 1 and day 5 (reference value: 32.5 g); type: organism-based; conditions: in vivo
H22 [18] = assay: Antitumor activity against mouse H22 cells implanted in Kunming mouse assessed as tumor growth inhibition at 40 mg/kg, ip administered on day 1 and day 5 relative to control relative to control; type: functional; conditions: read-out: TGI
Mus musculus [19] = assay: Toxicity in Kunming mouse implanted with mouse H22 cell assessed as survival at 40 mg/kg, ip administered on day 1 and day 5; type: organism-based; conditions: in vivo
Mus musculus [20] = assay: Toxicity in BALB/c nude mouse xenografted with human BGC823 cells assessed as body weight at 50 mg/kg, ip administered once in a week for two weeks starting from 6 days post tumor transplantation and measured every 3 days during compound dosing for 15 days (reference value: 23.6 g); type: organism-based; conditions: in vivo, 360 h
BGC-823 [21] = assay: Antitumor activity against human BGC823 cells xenografted in BALB/c nude mouse assessed as tumor growth inhibition at 50 mg/kg, ip administered once in a week for two weeks starting from 6 days post tumor transplantation measured 27 to 30 days post tumor transplantation relative to control; type: functional; conditions: BGC-823, ip, read-out: TGI
Mus musculus [22] = assay: Toxicity in BALB/c nude mouse xenografted with human BGC823 cells assessed as mouse survival at 50 mg/kg, ip administered once in a week for two weeks starting from 6 days post tumor transplantation; type: organism-based; conditions: in vivo, 144 h
H22 [23] = assay: Antitumor activity against mouse H22 cells implanted in Kunming mouse assessed as tumor growth inhibition at 100 mg/kg, ip administered once relative to control; type: functional; conditions: read-out: TGI
H22 [24] = assay: Antitumor activity against mouse H22 cells implanted in Kunming mouse assessed as tumor growth inhibition at 60 mg/kg, ip administered twice relative to control; type: functional; conditions: read-out: TGI
Mus musculus [25] = assay: Toxicity in Kunming mouse implanted with mouse H22 cells assessed as body weight at 100 mg/kg, ip administered once (reference value: 31.1 g); type: organism-based; conditions: in vivo
Mus musculus [26] = assay: Toxicity in Kunming mouse implanted with mouse H22 cells assessed as body weight at 60 mg/kg, ip administered twice (reference value: 31.1 g); type: organism-based; conditions: in vivo
H22 [27] = assay: Antitumor activity against mouse H22 cells implanted in Kunming mouse assessed as tumor growth inhibition at 100 mg/kg, ip administered twice relative to control; conditions: read-out: TGI
Mus musculus [28] = assay: Toxicity in Kunming mouse implanted with mouse H22 cells assessed as body weight at 24 mg/kg, ip administered once in every three days totally for 3 times (reference value: 32.5 g); type: organism-based; conditions: in vivo
H22 [29] = assay: Antitumor activity against mouse H22 cells implanted in Kunming mouse assessed as tumor growth inhibition at 24 mg/kg, ip administered once in every 3 days totally for 3 times relative to control; type: functional; conditions: 72 h, read-out: TGI

Row | SMILES | IC50 (A549 [1]) [nM] | IC50 (Bel-7402 [2]) [nM] | IC50 (BGC-823 [3]) [nM] | IC50 (HCT-8) [nM] | IC50 (A2780) [nM] | also measured
1 | CC[C@@]1(OC(=O)Cn2ccc(=O)[nH]c2=O)C(=O)OCc2c1cc1n(c2=O)Cc2cc3c([N+](=O)[O-])cccc3nc2-1 | 51 | 18 | 17 | 14 | 73 | Activity (Mus musculus [17]): 32 g; inhibition in vivo at 40 mg/kg (H22 [18]): 11%; Activity (Mus musculus [19]): Non-Toxic
2 | CCc1c2c(nc3ccc(OC(=O)N4CCC(N5CCCCC5)CC4)cc13)-c1cc3c(c(=O)n1C2)COC(=O)[C@]3(O)CC [IRINOTECAN] |  |  |  |  |  | Activity (Mus musculus [20]): 20.5 g; inhibition in vivo at 50 mg/kg (BGC-823 [21]): 94.1%; Activity (Mus musculus [22]): Non-Toxic
3 | CC[C@@]1(O)C(=O)OCc2c1cc1n(c2=O)Cc2cc3ccccc3nc2-1 [CAMPTOTHECIN] | 6 | 14 | 57 | 24 | 29 | 
4 | CCc1c2c(nc3ccccc13)-c1cc3c(c(=O)n1C2)COC(=O)[C@@]3(CC)OC(=O)Cn1cc(Cl)c(=O)[nH]c1=O | 38 | 12 | 17 | 2 | 670 | Activity (Mus musculus [17]): 27 g; inhibition in vivo at 40 mg/kg (H22 [18]): 46.2%; inhibition in vivo at 100 mg/kg (H22 [23]): 58.7%; inhibition in vivo at 60 mg/kg (H22 [24]): 76.6%; Activity (Mus musculus [19]): Non-Toxic; Activity (Mus musculus [25]): 25.2 g; Activity (Mus musculus [26]): 26.2 g
5 | O=P1(N(CCCl)CCCl)NCCCO1 (stereo not drawn) [CYCLOPHOSPHAMIDE ANHYDROUS] |  |  |  |  |  | inhibition in vivo at 100 mg/kg (H22 [27]): 93.7%
6 | CC[C@@]1(OC(=O)Cn2cc(F)c(=O)[nH]c2=O)C(=O)OCc2c1cc1n(c2=O)Cc2cc3ccccc3nc2-1 | 126 | 86 | 64 | 109 | 68 | 
7 | CC[C@@]1(OC(=O)Cn2cc(Br)c(=O)[nH]c2=O)C(=O)OCc2c1cc1n(c2=O)Cc2cc3ccccc3nc2-1 | 48 | 12 | 16 | 6 | 160 | Activity (Mus musculus [17]): 32.1 g; inhibition in vivo at 40 mg/kg (H22 [18]): 6.39%; Activity (Mus musculus [19]): Non-Toxic
8 | CC(=O)O[C@H]1C(=O)[C@@]2(C)[C@H]([C@H](OC(=O)c3ccccc3)[C@]3(O)C[C@H](OC(=O)[C@H](O)[C@@H](NC(=O)c4ccccc4)c4ccccc4)C(C)=C1C3(C)C)[C@]1(OC(C)=O)CO[C@@H]1C[C@@H]2O [PACLITAXEL] |  |  |  |  |  | Activity (Mus musculus [28]): 18.9 g; inhibition in vivo at 24 mg/kg (H22 [29]): 73.8%
9 | CC[C@@]1(OC(=O)Cn2ccc(=O)[nH]c2=O)C(=O)OCc2c1cc1n(c2=O)Cc2cc3ccccc3nc2-1 | 46 | 18 | 17 | 14 | 160 | 

The next lines start with results.

Row | IC50 (A549 [1]) [nM] | IC50 (Bel-7402 [2]) [nM] | IC50 (BGC-823 [3]) [nM] | IC50 (HCT-8) [nM] | IC50 (A2780) [nM] | SMILES | also measured
10 | 710 | 4510 | 2570 | 586 | 669 | CCc1c2c(nc3ccccc13)-c1cc3c(c(=O)n1C2)COC(=O)[C@@]3(CC)OC(=O)Cn1cc(I)c(=O)[nH]c1=O | 
11 | 65 | 14 | 17 | 2 | 86 | CCc1c2c(nc3ccccc13)-c1cc3c(c(=O)n1C2)COC(=O)[C@@]3(CC)OC(=O)Cn1ccc(=O)[nH]c1=O | 
12 | 7 | 100 | 78 | 22 | 78 | CC[C@@]1(O)C(=O)OCc2c1cc1n(c2=O)Cc2cc3c(CN(C)C)c(O)ccc3nc2-1 [TOPOTECAN] | Activity (A549 [4]): 53.22%; Activity (A549 [5]): 35.07%; Activity (A549 [6]): 11.71%; Activity (A549 [7]): 55.73%; Activity (A549 [8]): 31.44%; Activity (A549 [9]): 12.83%; Activity (A549 [10]): 43.81%; Activity (A549 [11]): 23.36%; Activity (A549 [12]): 32.83%; Activity (Mus musculus [13]): Non-Toxic; inhibition in vivo at 5 mg/kg (Bel-7402 [14]): 45.5%; inhibition (Escherichia coli): Active; T/C (Bel-7402 [15]): 58.8%; tumor volume (Mus musculus [16]): 302 mm³
13 | 117 | 13 | 16 | 14 | 200 | CC[C@@]1(OC(=O)Cn2cc(I)c(=O)[nH]c2=O)C(=O)OCc2c1cc1n(c2=O)Cc2cc3c([N+](=O)[O-])cccc3nc2-1 | 
14 | 81 | 16 | 17 | 13 | 115 | CC[C@@]1(OC(=O)Cn2cc(F)c(=O)[nH]c2=O)C(=O)OCc2c1cc1n(c2=O)Cc2cc3c([N+](=O)[O-])cccc3nc2-1 | 
15 | 75 | 16 | 17 | 13 | 221 | CC[C@@]1(OC(=O)Cn2cc(Cl)c(=O)[nH]c2=O)C(=O)OCc2c1cc1n(c2=O)Cc2cc3c([N+](=O)[O-])cccc3nc2-1 | 
16 | 54 | 17 | 16 | 13 | 110 | CC[C@@]1(OC(=O)Cn2cc(Cl)c(=O)[nH]c2=O)C(=O)OCc2c1cc1n(c2=O)Cc2cc3ccccc3nc2-1 | 
17 | 6400 | 3280 | 7890 | 957 | 750 | CC[C@@]1(OC(=O)Cn2cc(I)c(=O)[nH]c2=O)C(=O)OCc2c1cc1n(c2=O)Cc2cc3ccccc3nc2-1 | 
18 | 88 | 12 | 31 | < 2 | 182 | CCc1c2c(nc3ccccc13)-c1cc3c(c(=O)n1C2)COC(=O)[C@@]3(CC)OC(=O)Cn1cc(Br)c(=O)[nH]c1=O | 
19 | 90 | 13 | 15 | 13 | 183 | CC[C@@]1(OC(=O)Cn2cc(Br)c(=O)[nH]c2=O)C(=O)OCc2c1cc1n(c2=O)Cc2cc3c([N+](=O)[O-])cccc3nc2-1 | 
